± gives the expanded uncertainty stated by the source.
Legend:
[1] = Molar enthalpy of transition or fusion; details: Crystal; DSC
[2] = Crystal; DTA

Molar enthalpy of transition or fusion [1]: 7.08 ± 0.454 kcal/mol
Normal melting temperature [2]: 159.07 ± 0.53 °C
Structure (SMILES): C[C@@H]1O[C@@H](O[C@H]2[C@H](Oc3cc(O)c(C(=O)CCc4ccc(O)cc4)c(O)c3)O[C@H](CO)[C@@H](O)[C@@H]2O)[C@H](O)[C@H](O)[C@H]1O [naringin dihydrochalcone]

Source: the NIST ThermoML archive (doi:10.1021/acs.jced.6b00543)
